Legend:
[1] = tested on: human neonatal skin fibroblast cells (Cryo NHDF-Neo); assay: Antioxidant effect on oxidative damages induced by AAPH (AlamarBlue viable cell ratio); type: cell-based; details: for antioxidant effect on AAPH: conclusion in words
Method: (§1) For the evaluation of an antioxidant effect on hydrogen peroxide, human neonatal skin fibroblast cells (trade name: Cryo NHDF-Neo, manufactured by Sankyo Junyaku Co., Ltd.) were inoculated to a 24-well plate to have 1×10^5 cells per well. The cells were then cultured for four hours in a medium for cell culture (trade name: D-MEM (1 g/L glucose), manufactured by Wako Pure Chemical Industries) supplemented with 10% bovine fetal serum (herein below, referred to as a “standard medium”) in a 5% CO2 and saturated water vapor atmosphere at 37° C. (degrees Celsius). For the evaluation of an antioxidant effect on AAPH, antibiotics (penicillin, streptomycin, and fungizone) were supplemented to the standard medium and the cells were cultured for one day.
(§2) Subsequently, the culture medium was switched to a medium for cell culture (trade name: D-MEM (1 g/L glucose), manufactured by Wako Pure Chemicals Industries) supplemented with 0.5% bovine fetal serum (herein below, referred to as “low-serum medium”) to which 0.01% or 0.05% carnosine, or 0.1 μM (micro-molar) or 10 μM (micro-molar) D- or L-aspartic acid had been added, and the cells were cultured for two days under atmosphere of 5% CO2 and saturated moisture at 37° C. (degrees Celsius). For the experiment for the evaluation of oxidative damages on AAPH, the culture medium was switched to the medium for cell culture to which 5 ppm or 100 ppm carnosine, or 10 μM (micro-molar) D- or L-aspartic acid had been further added, and the cells were cultured for two days. The low-serum medium described above to which neither carnosine nor aspartic acid had been added was employed as a negative control.
(§3) After culturing for two days, 1 mM or 4 mM hydrogen peroxide, or 50 mM or 100 mM AAPH was added to the medium for evaluating an antioxidant effect, and the antioxidant effect was evaluated for carnosine or aspartic acid. The low-serum medium described above to which neither hydrogen peroxide nor AAPH had been added was employed as a control for evaluation of toxicity of an antioxidant when no oxidant was added.
(§4) Two hours after the addition of hydrogen peroxide or AAPH, AlarmarBlue (trade name: Biosource, manufactured by Biosource International Inc.) was added to have final concentration of 10%. Two to three hours later, according to the methods by Ahmed S. A. et al. (J. Immunol. Method., 170, 211-224 (1994)) and the instructions provided by the manufacturer, the fluorescent intensity of the supernatant was measured with an excitation wavelength of 544 nm, and an emission wavelength of 590 nm.

[2] = tested on: human neonatal skin fibroblast cells (Cryo NHDF-Neo); assay: Antioxidant effect on oxidative damages induced by hydrogen peroxide (AlamarBlue viable cell ratio); type: cell-based; details: for antioxidant effect on hydrogen peroxide: conclusion in words
Method: as §1, §2, §3, §4

[3] = 100 mM AAPH, test substance 10 μM
[4] = without addition of the oxidant (toxicity control), test substance 10 μM
[5] = 1 mM hydrogen peroxide, test substance 0.1 μM
[6] = 1 mM hydrogen peroxide, test substance 10 μM
[7] = 4 mM hydrogen peroxide, test substance 0.1 μM
[8] = 4 mM hydrogen peroxide, test substance 10 μM
[9] = without addition of an oxidant (toxicity control), test substance 0.1 μM
[10] = without addition of an oxidant (toxicity control), test substance 10 μM

Structure (SMILES): N[C@H](CC(=O)O)C(=O)O [D-aspartic acid]
- ratio of viable cells [1, 3]: 96%
- antioxidant effect on AAPH [1]: more potent antioxidant effect on AAPH compared to L-aspartic acid
- ratio of viable cells [1, 4]: 102%
- ratio of viable cells [2, 5]: 62%
- ratio of viable cells [2, 6]: 63%
- ratio of viable cells [2, 7]: 29%
- ratio of viable cells [2, 8]: 34%
- antioxidant effect on hydrogen peroxide [2]: concentration-dependent antioxidant effect
- ratio of viable cells [2, 9]: 86%
- ratio of viable cells [2, 10]: 97%

Structure (SMILES): N[C@@H](CC(=O)O)C(=O)O [L-aspartic acid]
- ratio of viable cells [1, 3]: 69%
- antioxidant effect on AAPH [1]: antioxidant effect on AAPH only
- ratio of viable cells [1, 4]: 80%
- ratio of viable cells [2, 5]: 62%
- ratio of viable cells [2, 6]: 62%
- ratio of viable cells [2, 7]: 33%
- ratio of viable cells [2, 8]: 32%
- antioxidant effect on hydrogen peroxide [2]: not observed
- ratio of viable cells [2, 9]: 88%
- ratio of viable cells [2, 10]: 97%

Structure (SMILES): NCCC(=O)N[C@@H](Cc1cnc[nH]1)C(=O)O [carnosine, reference compound]
- ratio of viable cells ([1]; 100 mM AAPH, test substance 5 ppm): 60%
- ratio of viable cells ([1]; 100 mM AAPH, test substance 100 ppm): 85%
- antioxidant effect on AAPH [1]: confirmed
- ratio of viable cells ([1]; without addition of an oxidant (toxicity control), test substance 5 ppm): 93%
- ratio of viable cells ([1]; without addition of an oxidant (toxicity control), test substance 100 ppm): 103%
- ratio of viable cells ([2]; 1 mM hydrogen peroxide, test substance 0.01%): 51%
- ratio of viable cells ([2]; 1 mM hydrogen peroxide, test substance 0.05%): 53%
- ratio of viable cells ([2]; 4 mM hydrogen peroxide, test substance 0.01%): 21%
- ratio of viable cells ([2]; 4 mM hydrogen peroxide, test substance 0.05%): 45%
- antioxidant effect on hydrogen peroxide [2]: confirmed
- ratio of viable cells ([2]; without addition of an oxidant (toxicity control), test substance 0.01%): 100%
- ratio of viable cells ([2]; without addition of an oxidant (toxicity control), test substance 0.05%): 97%

From patent publication US8962684B2, “Antioxidant composition” (Shiseido Company, Ltd., priority 2009, dated 2015)
